Source: PubChem BioAssay (NCI)
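Abbreviation: GI50, concentration required for 50% inhibition of growth. TGI: total growth inhibition.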

Key:
Assay in all cases: DTP human tumour cell line panel, 384-well format
SW-620 colon = test system: SW-620 colon
UACC-257 melanoma = test system: UACC-257 melanoma
OVCAR-4 ovarian = test system: OVCAR-4 ovarian
NCI-H322M lung = test system: NCI-H322M lung
M14 melanoma = test system: M14 melanoma
MDA-MB-435 melanoma = test system: MDA-MB-435 melanoma
NCI-H460 NSCLC = test system: NCI-H460 NSCLC
IGROV1 ovarian = test system: IGROV1 ovarian
SK-MEL-5 melanoma = test system: SK-MEL-5 melanoma
SN12C renal = test system: SN12C renal
HCC-2998 colon = test system: HCC-2998 colon
NCI-H522 lung = test system: NCI-H522 lung
SF-295 CNS = test system: SF-295 CNS
HOP-92 NSCLC = test system: HOP-92 NSCLC
SR leukemia = test system: SR leukemia
UACC-62 melanoma = test system: UACC-62 melanoma
MDA-MB-468 breast = test system: MDA-MB-468 breast
HOP-62 NSCLC = test system: HOP-62 NSCLC
OVCAR-8 ovarian = test system: OVCAR-8 ovarian
HCT-116 colon = test system: HCT-116 colon
ACHN renal = test system: ACHN renal
MOLT-4 leukemia = test system: MOLT-4 leukemia
CCRF-CEM leukemia = test system: CCRF-CEM leukemia
MDA-MB-231 breast = test system: MDA-MB-231 breast
CAKI-1 renal = test system: CAKI-1 renal
HCT-15 colon = test system: HCT-15 colon
786-0 renal = test system: 786-0 renal
SK-OV-3 ovarian = test system: SK-OV-3 ovarian
NCI/ADR-RES ovarian = test system: NCI/ADR-RES ovarian
PC-3 prostate = test system: PC-3 prostate
HS 578T breast = test system: HS 578T breast
LOX IMVI melanoma = test system: LOX IMVI melanoma
HL-60(TB) leukemia = test system: HL-60(TB) leukemia
MALME-3M melanoma = test system: MALME-3M melanoma
OVCAR-3 ovarian = test system: OVCAR-3 ovarian
NCI-H226 lung = test system: NCI-H226 lung
SK-MEL-28 melanoma = test system: SK-MEL-28 melanoma
SF-268 CNS = test system: SF-268 CNS
TK-10 renal = test system: TK-10 renal
MCF7 breast = test system: MCF7 breast
A498 renal = test system: A498 renal
NCI-H23 lung = test system: NCI-H23 lung
OVCAR-5 ovarian = test system: OVCAR-5 ovarian
SNB-75 CNS = test system: SNB-75 CNS
BT-549 breast = test system: BT-549 breast
A549 NSCLC = test system: A549 NSCLC
SF-539 CNS = test system: SF-539 CNS
UO-31 renal = test system: UO-31 renal
U251 glioblastoma = test system: U251 glioblastoma
SK-MEL-2 melanoma = test system: SK-MEL-2 melanoma
RPMI-8226 leukemia = test system: RPMI-8226 leukemia
HT29 colon = test system: HT29 colon
RXF 393 renal = test system: RXF 393 renal
SNB-19 CNS = test system: SNB-19 CNS
KM12 colon = test system: KM12 colon
DU-145 prostate = test system: DU-145 prostate
K-562 leukemia = test system: K-562 leukemia
T-47D breast = test system: T-47D breast
COLO 205 colon = test system: COLO 205 colon
EKVX NSCLC = test system: EKVX NSCLC

Q: Which GI50 (SW-620 colon) does the source give for `CC(=O)OC1C(C)OC(Oc2c(-c3ccc(O)cc3)oc3cc(O)cc(O)c3c2=O)C(O)C1OC(C)=O` (stereo not given) here?
A: 59.1 µM

Q: And the TGI (SW-620 colon)?
A: > 100 µM

Q: And the GI50 (UACC-257 melanoma)?
A: 43.5 µM

Q: What about the TGI (UACC-257 melanoma) of the same compound?
A: > 100 µM

Q: And the GI50 (OVCAR-4 ovarian)?
A: 36.4 µM

Q: And the TGI (OVCAR-4 ovarian)?
A: > 100 µM

Q: And the GI50 (NCI-H322M lung)?
A: 46.9 µM

Q: What about the TGI (NCI-H322M lung) of the same compound?
A: > 100 µM

Q: And the GI50 (M14 melanoma)?
A: 39.8 µM

Q: And the TGI (M14 melanoma)?
A: > 100 µM

Q: And the GI50 (MDA-MB-435 melanoma)?
A: 40.8 µM

Q: And the TGI (MDA-MB-435 melanoma)?
A: > 100 µM

Q: And the GI50 (NCI-H460 NSCLC)?
A: 39.5 µM

Q: And the TGI (NCI-H460 NSCLC)?
A: > 100 µM

Q: What about the GI50 (IGROV1 ovarian) of the same compound?
A: 44.7 µM

Q: What about the TGI (IGROV1 ovarian) of the same compound?
A: > 100 µM

Q: And the GI50 (SK-MEL-5 melanoma)?
A: 32.5 µM

Q: And the TGI (SK-MEL-5 melanoma)?
A: > 100 µM

Q: What about the GI50 (SN12C renal) of the same compound?
A: 32.2 µM

Q: And the TGI (SN12C renal)?
A: > 100 µM

Q: And the GI50 (HCC-2998 colon)?
A: 38.7 µM

Q: What about the TGI (HCC-2998 colon) of the same compound?
A: > 100 µM

Q: And the GI50 (NCI-H522 lung)?
A: 20.5 µM

Q: And the TGI (NCI-H522 lung)?
A: 46.2 µM

Q: What about the GI50 (SF-295 CNS) of the same compound?
A: 33.9 µM

Q: And the TGI (SF-295 CNS)?
A: > 100 µM

Q: What about the GI50 (HOP-92 NSCLC) of the same compound?
A: 28.6 µM

Q: What about the TGI (HOP-92 NSCLC) of the same compound?
A: 76.8 µM

Q: And the GI50 (SR leukemia)?
A: 17.7 µM

Q: What about the TGI (SR leukemia) of the same compound?
A: 34.2 µM

Q: What about the GI50 (UACC-62 melanoma) of the same compound?
A: 23.1 µM

Q: What about the TGI (UACC-62 melanoma) of the same compound?
A: 63.6 µM

Q: What about the GI50 (MDA-MB-468 breast) of the same compound?
A: 19.6 µM

Q: And the TGI (MDA-MB-468 breast)?
A: 38.7 µM

Q: And the GI50 (HOP-62 NSCLC)?
A: 20.8 µM

Q: What about the TGI (HOP-62 NSCLC) of the same compound?
A: 49 µM

Q: And the GI50 (OVCAR-8 ovarian)?
A: 31.4 µM

Q: What about the TGI (OVCAR-8 ovarian) of the same compound?
A: > 100 µM

Q: What about the GI50 (HCT-116 colon) of the same compound?
A: 39.2 µM

Q: What about the TGI (HCT-116 colon) of the same compound?
A: > 100 µM

Q: What about the GI50 (ACHN renal) of the same compound?
A: 74.5 µM

Q: And the TGI (ACHN renal)?
A: > 100 µM

Q: And the GI50 (MOLT-4 leukemia)?
A: 17.4 µM

Q: What about the TGI (MOLT-4 leukemia) of the same compound?
A: 31.9 µM

Q: What about the GI50 (CCRF-CEM leukemia) of the same compound?
A: 20.2 µM

Q: And the TGI (CCRF-CEM leukemia)?
A: 37.6 µM

Q: What about the GI50 (MDA-MB-231 breast) of the same compound?
A: 25.7 µM

Q: And the TGI (MDA-MB-231 breast)?
A: 74.1 µM

Q: And the GI50 (CAKI-1 renal)?
A: > 100 µM

Q: What about the TGI (CAKI-1 renal) of the same compound?
A: > 100 µM

Q: And the GI50 (HCT-15 colon)?
A: 87.7 µM

Q: What about the TGI (HCT-15 colon) of the same compound?
A: > 100 µM

Q: What about the GI50 ([…]-0 renal) of the same compound?
A: 62 µM

Q: And the TGI (786-0 renal)?
A: > 100 µM

Q: And the GI50 (SK-OV-3 ovarian)?
A: 46.3 µM

Q: What about the TGI (SK-OV-3 ovarian) of the same compound?
A: > 100 µM

Q: And the GI50 (NCI/ADR-RES ovarian)?
A: > 100 µM

Q: And the TGI (NCI/ADR-RES ovarian)?
A: > 100 µM

Q: What about the GI50 (PC-3 prostate) of the same compound?
A: 38.9 µM

Q: What about the TGI (PC-3 prostate) of the same compound?
A: > 100 µM

Q: And the GI50 (HS 578T breast)?
A: 21.5 µM

Q: And the TGI (HS 578T breast)?
A: 62.4 µM

Q: And the GI50 (LOX IMVI melanoma)?
A: 31.6 µM

Q: What about the TGI (LOX IMVI melanoma) of the same compound?
A: > 100 µM

Q: What about the GI50 (HL-60(TB) leukemia) of the same compound?
A: 17.5 µM

Q: What about the TGI (HL-60(TB) leukemia) of the same compound?
A: 31.5 µM

Q: What about the GI50 (MALME-3M melanoma) of the same compound?
A: 20.2 µM

Q: What about the TGI (MALME-3M melanoma) of the same compound?
A: 49.8 µM

Q: And the GI50 (OVCAR-3 ovarian)?
A: 23.3 µM

Q: What about the TGI (OVCAR-3 ovarian) of the same compound?
A: 57.7 µM

Q: And the GI50 (NCI-H226 lung)?
A: 34.2 µM

Q: And the TGI (NCI-H226 lung)?
A: > 100 µM

Q: And the GI50 (SK-MEL-28 melanoma)?
A: 32.2 µM

Q: And the TGI (SK-MEL-28 melanoma)?
A: > 100 µM

Q: What about the GI50 (SF-268 CNS) of the same compound?
A: 28.8 µM

Q: What about the TGI (SF-268 CNS) of the same compound?
A: 92.7 µM

Q: And the GI50 (TK-10 renal)?
A: > 100 µM

Q: And the TGI (TK-10 renal)?
A: > 100 µM

Q: And the GI50 (MCF7 breast)?
A: 37.2 µM

Q: What about the TGI (MCF7 breast) of the same compound?
A: > 100 µM

Q: What about the GI50 (A498 renal) of the same compound?
A: 92.1 µM

Q: And the TGI (A498 renal)?
A: > 100 µM

Q: What about the GI50 (NCI-H23 lung) of the same compound?
A: 28.8 µM

Q: What about the TGI (NCI-H23 lung) of the same compound?
A: 82.3 µM

Q: And the GI50 (OVCAR-5 ovarian)?
A: > 100 µM

Q: And the TGI (OVCAR-5 ovarian)?
A: > 100 µM

Q: What about the GI50 (SNB-75 CNS) of the same compound?
A: 32 µM

Q: And the TGI (SNB-75 CNS)?
A: 97 µM

Q: And the GI50 (BT-549 breast)?
A: 19.4 µM

Q: And the TGI (BT-549 breast)?
A: 44.7 µM

Q: And the GI50 (A549 NSCLC)?
A: > 100 µM

Q: And the TGI (A549 NSCLC)?
A: > 100 µM

Q: And the GI50 (SF-539 CNS)?
A: > 100 µM

Q: What about the TGI (SF-539 CNS) of the same compound?
A: > 100 µM

Q: What about the GI50 (UO-31 renal) of the same compound?
A: > 100 µM

Q: And the TGI (UO-31 renal)?
A: > 100 µM

Q: What about the GI50 (U251 glioblastoma) of the same compound?
A: 46.4 µM

Q: What about the TGI (U251 glioblastoma) of the same compound?
A: > 100 µM

Q: And the GI50 (SK-MEL-2 melanoma)?
A: 30 µM

Q: And the TGI (SK-MEL-2 melanoma)?
A: 73.8 µM

Q: And the GI50 (RPMI-8226 leukemia)?
A: 15.1 µM

Q: What about the TGI (RPMI-8226 leukemia) of the same compound?
A: 30.8 µM

Q: And the GI50 (HT29 colon)?
A: 63.6 µM

Q: And the TGI (HT29 colon)?
A: > 100 µM

Q: What about the GI50 (RXF 393 renal) of the same compound?
A: 23 µM

Q: What about the TGI (RXF 393 renal) of the same compound?
A: 65.9 µM

Q: What about the GI50 (SNB-19 CNS) of the same compound?
A: 50.4 µM

Q: And the TGI (SNB-19 CNS)?
A: > 100 µM

Q: And the GI50 (KM12 colon)?
A: 41.9 µM

Q: What about the TGI (KM12 colon) of the same compound?
A: > 100 µM

Q: And the GI50 (DU-145 prostate)?
A: 27.6 µM

Q: What about the TGI (DU-145 prostate) of the same compound?
A: 77.1 µM

Q: What about the GI50 (K-562 leukemia) of the same compound?
A: 34.4 µM

Q: What about the TGI (K-562 leukemia) of the same compound?
A: > 100 µM

Q: And the GI50 (T-47D breast)?
A: 19.5 µM

Q: What about the TGI (T-47D breast) of the same compound?
A: 47.7 µM

Q: What about the GI50 (COLO 205 colon) of the same compound?
A: 93.1 µM

Q: And the TGI (COLO 205 colon)?
A: > 100 µM

Q: And the GI50 (EKVX NSCLC)?
A: 83.8 µM

Q: And the TGI (EKVX NSCLC)?
A: > 100 µM
